Assay results: patent publication US6410249B1, “Odorant receptors” (priority 1999, dated 2002)
pKi: −log10 of the molar value. “Also recorded” adds a separate entry of the source. Like-named read-outs stand apart in the source and are kept apart here.

Tests used:
receptor 5.24 [1] = biological target: T1, receptor 5.24 (Carassius auratus, UniProt Q9PW88); assay: biochemical; format: binding; details: for binding to receptor 5.24, in words: comparative binding studies
T1 construct: The receptor 5.24 full length cDNA detects 1-2 bands in genomic DNA blots; expressed in transfected cells; host or cells: HEK 293 cells expressing SV40 large T antigen (293-TSA)
T1 sequence (Q9PW88 25-877): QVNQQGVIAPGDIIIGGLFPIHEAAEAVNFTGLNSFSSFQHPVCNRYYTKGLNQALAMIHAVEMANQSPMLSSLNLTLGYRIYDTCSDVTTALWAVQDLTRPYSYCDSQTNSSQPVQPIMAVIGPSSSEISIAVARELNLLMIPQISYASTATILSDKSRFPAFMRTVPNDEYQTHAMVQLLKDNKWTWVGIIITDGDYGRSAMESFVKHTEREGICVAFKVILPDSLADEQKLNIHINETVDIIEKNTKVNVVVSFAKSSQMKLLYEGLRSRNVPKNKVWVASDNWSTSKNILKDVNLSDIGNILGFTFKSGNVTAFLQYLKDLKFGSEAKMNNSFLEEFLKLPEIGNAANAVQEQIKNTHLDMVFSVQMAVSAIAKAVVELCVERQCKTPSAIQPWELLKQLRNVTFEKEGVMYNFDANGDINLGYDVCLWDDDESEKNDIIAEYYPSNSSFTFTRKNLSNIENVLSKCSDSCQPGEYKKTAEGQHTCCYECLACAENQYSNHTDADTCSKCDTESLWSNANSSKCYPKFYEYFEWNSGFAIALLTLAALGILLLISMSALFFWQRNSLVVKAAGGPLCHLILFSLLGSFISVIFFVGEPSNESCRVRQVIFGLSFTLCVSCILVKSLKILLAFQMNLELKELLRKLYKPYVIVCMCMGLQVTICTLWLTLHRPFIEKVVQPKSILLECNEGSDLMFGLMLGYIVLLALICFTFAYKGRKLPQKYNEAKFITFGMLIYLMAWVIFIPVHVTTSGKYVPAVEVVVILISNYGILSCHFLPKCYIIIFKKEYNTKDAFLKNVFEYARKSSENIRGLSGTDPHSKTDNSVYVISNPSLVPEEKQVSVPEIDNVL
Description: Structure-Activity Properties of Compounds Interacting with the Cloned Goldfish Amino Acid Odorant Receptor. An understanding of how odorant receptors are used to encode olfactory information requires a characterization of the odorant specificities of individual receptor types. We therefore wished to determine the relative specificity of receptor 5.24 for structurally related ligands. […] Briefly, 3H-arginine binding to membranes from receptor 5.24-expressing HEK 293 cells was assayed in the absence or presence of varying concentrations of competitor ligands.
Mammalian Cell Culture and DNA Transfections. For cell transfections, the receptor 5.24 cDNA insert was subcloned into two expression vectors: CMVI, which utilizes a human cytomegalovirus (CMV) immediate early promoter-enhancer plus the CMV intron A sequence to drive expression, and 608RX-2.2L, which is similar to CMVI except the cDNA insert is followed by an internal ribosome entry site (IRES)—enhanced green fluorescent protein (EGFP) coding sequence; 608RX-2.2L also contains a puromycin resistance gene. For transient assays, HEK 293 cells expressing the SV40 large T antigen (293 TSA cells) were transfected with the CMVI-receptor 5.24 or CMVI control plasmid using lipofectamine (Life Technologies) and harvested at 48 hours for membrane preparations. For stable cell lines, 293-TSA cells were transfected with the 608RX-2.2L-receptor 5.24 plasmid or a control 608RX-2.2L plasmid and selected in puromycin. Colonies showing high levels of EGFP fluorescence (as judged by epifluorescence microscopy) were picked, expanded, and screened for 3H-L-arginine binding (see below).
Membrane Preparations and Ligand Binding Assays. Membranes for ligand binding assays were prepared by washing confluent cells three times with phosphate buffered saline (PBS), detaching cells with a PBS-based enzyme-free dissociation solution, and resuspending cells in ice-cold 5.0 mM Hepes, pH 7.4, 1.0 mM EDTA, 1.0 μg/ml leupeptin, 0.5 mM PMSF. All subsequent manipulations were performed on ice. After a 30 min incubation, the cell suspension was homogenized and centrifuged at 100,000×g for 30 min. Cell membrane pellets were washed twice by resuspension and centrifugation in binding buffer (20 mM Hepes, pH 7.4, 1.0 mM EDTA, 2.0 mM MgCl2, 1.0 μg/ml leupeptin, 0.5 mM PMSF), resuspended in binding buffer, and frozen at −80° C.
Saturation binding assays were performed using 20-25 μg of membrane protein in a final volume of 100 μl binding buffer and increasing concentrations of [2,3-3H] L-arginine (specific activity=40 Ci/mmol; Dupont NEN). Non-specific binding was measured in the presence of 500 μM unlabeled L-arginine. Competition assays were performed with 500 nM [2,3-3H] L-arginine and increasing concentrations of competitor ligands. All incubations were performed at 4° C. for 60 min and terminated by rapid filtration through Whatman GF/C filters pretreated with ice cold 0.1% polyethyleneimine. Filters were washed three times with 4.0 ml ice cold 20 mM Hepes, pH 7.4, and retained radioactivity was measured by scintillation counting.

receptor 5.24 [2] = biological target: T1, receptor 5.24; assay: evoked currents in Xenopus oocytes expressing receptor 5.24 (two-electrode voltage clamp); format: cell-based, goldfish
Text: Identification by Expression Cloning of a cDNA Encoding a Goldfish Odorant Receptor. RNA was synthesized from pools of goldfish olfactory cDNA clones (900 individual clones per pool) and injected into Xenopus oocytes together with synthetic RNAs encoding GIRK and Gaolf. Oocytes were then screened for responses upon exposure to odorant cocktails containing amino acids, bile acids, or sex pheromones. […] The response to amino acids was biphasic, beginning with an oscillating inward current above the basal inward K+ current, followed by a decline in inward current to below the basal level. Such a biphasic effect is thought to be caused by Gaq-mediated activation of phospholipase C (responsible for the intial inward current via IP3) and protein kinase C (leading to suppression of the K+ current through phosphorylation of GIRK channel subunits) (Sharon et al., 1997).
Iterative subdivision of pool 19 by sib-selection allowed the isolation of a single clone encoding a receptor, designated receptor 5.24.
Oocytes were removed from anesthetized Xenopus laevis and treated with collagenase. Forty nanograms of cRNA from each cDNA library pool (˜40 pg cRNA/clone) was injected per oocyte, together with cRNAs encoding Gaolf and the GIRK subunits Kir 3.1 and Kir 3.4 (˜30 pg each). Approximately 30 pools were assayed before these primary screens were halted. Injected oocytes were incubated at 17° C. for over 80 hours prior to electrophysiological recordings. Recordings were performed by two-electrode voltage clamping using an Axoclamp-2A amplifier (Axon Instruments) or a Dagan CA-1 amplifier (Dagan Corp.). Data acquisition and analysis were performed using pCLAMP software (Axon Instruments). Membrane potential was held at −80 mV. For trials involving GIRK, oocytes were first perfused with Na-MBSH (88 mM NaCl, 1 mM KCl, 2.4 mM NaHCO3, 10 mM Hepes, pH 7.5, 0.82 mM MgSO4[7H2O], 0.33 mM Ca[NO3]2[4H2O], 0.41 mM CaCl2[2H2O]), and then switched into K-MBSH, which contains elevated K+ (88 mM KCl, 1 mM NaCl) until the basal current had stabilized (˜45 seconds) before challenging with agonist. Recordings on oocytes injected with receptor 5.24 in the absence of Gaolf and/or GIRK subunits were performed in Na-MBSH. Oocytes were exposed to solutions containing different agonists by switching bathing solutions with an 8 channel valve (Hamilton).

[3] = 3H-arginine displacement, read-out: Ki
[4] = displacement of 3H-L-arginine from membranes of HEK 293 cells expressing receptor 5.24, read-out: Ki (binding affinity)
[5] = read-out: Ki (binding affinity), displacement of 3H-L-arginine from membranes of HEK 293 cells expressing receptor 5.24

Structure (SMILES) | binding to receptor 5.24, in words (receptor 5.24 [1]) | pKi (receptor 5.24 [1]; [4]) | activation of receptor 5.24 (evoked currents), in words (receptor 5.24 [2]) | also measured
NCCS(=O)(=O)O [Taurine] | no specific interactions | < 3.00 |  | pKi (receptor 5.24 [1]; [3]): < 3.00
[Ca+2] [calcium] |  |  | not activated | 
N[C@@H](Cc1ccccc1)C(=O)O [L-Phenylalanine] | low affinities | 5.24 | little or no response | 
N=C(N)NCCCCN [Agmatine] | displaces 3H-arginine very poorly; also recorded: essentially no binding |  |  | pKi (receptor 5.24 [1]): < 3.00; pKi (receptor 5.24 [1]; [5]): < 3.00
N[C@@H](Cc1c[nH]c2ccccc12)C(=O)O [L-Tryptophan] | low affinities | 5.39 | little or no response | 
N[C@@H](CCC(=O)O)C(=O)O [L-Glutamate] |  | 5.17 |  | fold decrease in affinity / displacement relative to arginine or lysine (receptor 5.24 [1]; 3H-arginine displacement): approximately 80 fold; activation of receptor 5.24 (evoked currents), in words (receptor 5.24 [2]; listed as Glutamate): does not appear to activate; activation of receptor 5.24 (evoked currents), in words (receptor 5.24 [2]; listed as glutamate): little or no response; also recorded: not activated
O=C(O)[C@@H]1CCCN1 [L-Proline] | low affinities | 4.24 |  | 
NCCCC(=O)O [γ-Aminobutyric Acid (GABA), γ-Aminobutyric Acid] | no specific interactions |  |  | pKi (receptor 5.24 [1]): < 3.00; pKi (receptor 5.24 [1]; [5]): < 3.00
C[C@H](N)C(=O)O [L-Alanine] |  | 5.25 | smaller responses | 
CC[C@H](C)[C@H](N)C(=O)O [L-Isoleucine] |  | 5.66 | smaller responses | 
N=C(N)NCCCC[C@H](N)C(=O)O [L-Homoarginine] |  |  |  | pKi (receptor 5.24 [1]): 5.79
NC(=O)NCCC[C@H](N)C(=O)O [L-Citruline] |  | 6.02 |  | 
NC(=O)CC[C@H](N)C(=O)O [L-Glutamine] |  | 6.49 |  | 
N[C@@H](CS)C(=O)O [L-Cysteine] |  | 6.28 |  | 
CSCC[C@H](N)C(=O)O [L-Methionine] |  | 6.09 | smaller responses | 
N[C@@H](CC(=O)O)C(=O)O [L-Aspartate] |  |  |  | pKi (receptor 5.24 [1]): 4.57
NCC(=O)O [L-Glycine] |  | 5.41 |  | 
C[C@@H](O)[C@H](N)C(=O)O [L-Threonine] |  | 5.49 | smaller responses | 
N[C@@H](Cc1c[nH]cn1)C(=O)O [L-Histidine] | low affinities |  | little or no response | pKi (receptor 5.24 [1]): 4.89
NC(=O)C[C@H](N)C(=O)O [L-Asparagine] |  | 5.68 |  | 
NCCCCN [Putrescine] |  | < 3.00 |  | 
COC(=O)[C@@H](N)CCCNC(=N)N[N+](=O)[O-] [L-NAME] | modest affinity | 5.99 |  | 
CC(C)[C@H](N)C(=O)O [L-Valine] |  | 5.21 |  | 
NCCCCCN [Cadaverine] | essentially no binding | < 3.00 |  | pKi (receptor 5.24 [1]; [3]): < 3.00
NCCC(=O)N[C@@H](Cc1cnc[nH]1)C(=O)O [Carnosine] | no specific interactions | < 3.00 |  | pKi (receptor 5.24 [1]; [3]): < 3.00
NCCC[C@H](N)C(=O)O [L-Ornithine] |  |  |  | pKi (receptor 5.24 [1]; [3]): 6.00
CC(C)C[C@H](N)C(=O)O [L-Leucine] |  | 5.36 |  | 
N[C@@H](Cc1ccc(O)cc1)C(=O)O [L-Tyrosine] | low affinities |  | little or no response | pKi (receptor 5.24 [1]): 4.80
